Measurements published in patent US4332895A, “Thermal stable beta-galactosidase” (National Research Development Corp., priority 1978, dated 1982).
Like-named read-outs stand apart in the source and are kept apart here.

Experiments:
Assay type in all cases: biochemical
[1] = tested on: β-galactosidase of Bacillus stearothermophilus HRI strains, whole cell suspension; experiment: β-galactosidase assay, toluene-treated whole cell suspension, ONPG or lactose as substrate; settings: for Km: whole cell suspension, pH 7.0, 65° C.
Method: The cells are shaken at room temperature for about 5 minutes, and then harvested by centrifugation at 6000 g for 20 minutes in an MSE "Hi Spin 21" centrifuge prior to washing with buffer. […] The relation of Harris and Kornberg (Proc. Roy. Soc. Lond. B. 1972, 182, 159) is used to determine the cell density, 0.33 mg. dry wt. of B. stearothermophilus corresponding to an absorbance of 1.0 at 680 n.m. The assay used is based on that of Lederberg (J. […] Assays are carried out at incubation temperature of 65° C. and after the appropriate time interval the reactions are halted by addition of 3 ml aliquots of 0.5 M sodium bicarbonate to each reaction mixture and immediate cooling in an ice bath. The absorbance of the resultant solutions is measured at 410 nm using a Perkin-Elmer 124 double beam spectrophotometer. In the case of whole cell suspensions the assay tubes are centrifuged and in the case of the immobilised cells the mixtures are filtered, to remove cells and polyacrylamide gel respectively prior to measurement of the absorbance. […] The reaction mixtures are incubated for 15 minutes at 65° C., reactions are halted by addition of 4.2% perchloric acid and the solutions are centrifuged. Aliquots of the supernatant solutions are assayed for glucose or galactose. Glucose is estimated by a modification of the method of Trinder (Ann. Clin. […] Ltd.), 0.15 ml peroxidase (Boehringer Corp. Ltd.), 100 mg of 4-aminophenazone and 300 mg of sodium azide) followed by incubation at 37° C. for 10 minutes and absorbance measurement at 515 nm. […] Ltd.) is added, the solutions incubated at 37° C. for 30 minutes and the absorbance again measured at 340 nm.

[2] = tested on: β-galactosidase of Bacillus stearothermophilus HRI strains (HRI enzyme), purified enzyme; experiment: β-galactosidase assay, purified enzyme, ONPG or lactose as substrate
Method: The assay used is based on that of Lederberg (J. Bacteriol. 1950, 60, 381), using an assay mixture comprising 2.8 ml of 50 mM sodium phosphate, pH 7.0, and 0.1 ml of 68 mM ONPG. 0.1 ml aliquots of both purified enzyme and toluene-treated cell suspension, and 10 mg. amounts in 2.9 ml of buffer of freeze dried immobilised whole cell preparation are used for the assays. Assays are carried out at incubation temperature of 65° C. and after the appropriate time interval the reactions are halted by addition of 3 ml aliquots of 0.5 M sodium bicarbonate to each reaction mixture and immediate cooling in an ice bath. The absorbance of the resultant solutions is measured at 410 nm using a Perkin-Elmer 124 double beam spectrophotometer. In the case of whole cell suspensions the assay tubes are centrifuged and in the case of the immobilised cells the mixtures are filtered, to remove cells and polyacrylamide gel respectively prior to measurement of the absorbance.
The assay mixture used comprises 0.9 ml of 50 mM sodium phosphate buffer, pH 7.0, 4 ml of lactose (4 g in 100 ml of phosphate buffer), to which 0.1 ml of purified enzyme or cell suspension or 10 mg of gel entrapped cell preparation is added. The reaction mixtures are incubated for 15 minutes at 65° C., reactions are halted by addition of 4.2% perchloric acid and the solutions are centrifuged. Aliquots of the supernatant solutions are assayed for glucose or galactose.
Glucose is estimated by a modification of the method of Trinder (Ann. Clin. Biochem. 1969 6, 24). 1 ml aliquots of the supernatant solutions are assayed by addition to a mixture comprising 1 ml of 0.2% phenol and 3 ml of colour reagent (75 ml 4% (w/v) disodium hydrogen orthophosphate, 225 ml of water, 6 mg of glucose oxidase (Boehringer Corp. Ltd.), 0.15 ml peroxidase (Boehringer Corp. Ltd.), 100 mg of 4-aminophenazone and 300 mg of sodium azide) followed by incubation at 37° C. for 10 minutes and absorbance measurement at 515 nm.
Galactose is estimated as follows: a sample (e.g. 0.2 ml) containing not more than 200 μg/ml of galactose is mixed with 2.5 ml of buffer (4.8 g Na2 HPO4, 0.86g NaH2 PO4 and 0.2 g MgSO4 7H2 O per 200 ml of H2 O) and 0.1 ml of 10 mg/ml of NAD solution and the absorbance is measured at 340 nm. 0.02 ml of galactose dehydrogenase (Boehringer Corp. Ltd.) is added, the solutions incubated at 37° C. for 30 minutes and the absorbance again measured at 340 nm.

[3] = tested on: β-galactosidase of Bacillus stearothermophilus HRI strains, entrapped whole cell preparation; experiment: β-galactosidase assay, polyacrylamide gel entrapped (immobilised) whole cell preparation, ONPG or lactose as substrate; settings: for Km: entrapped whole cell preparation, pH 7.0, 65° C.
Method: Washed cells which have been toluene treated, as above, are resuspended in an equal volume of 50 mM sodium phosphate buffer, pH 7.0, containing acrylamide (200 g/l) and NN'-methylenebisacrylamide (20 g/l). Ammonium persulphate (2 […]) are added to this suspension which is then allowed to gel, and the gel is disrupted by forcing through a wire mesh, as described by Hjerten (Arch. Biochem. Biophys. […] The disrupted gel is freeze-dried to provide a stock of enzymatically active immobilised whole cell preparation. The assay used is based on that of Lederberg (J. […] Assays are carried out at incubation temperature of 65° C. and after the appropriate time interval the reactions are halted by addition of 3 ml aliquots of 0.5 M sodium bicarbonate to each reaction mixture and immediate cooling in an ice bath. The absorbance of the resultant solutions is measured at 410 nm using a Perkin-Elmer 124 double beam spectrophotometer. In the case of whole cell suspensions the assay tubes are centrifuged and in the case of the immobilised cells the mixtures are filtered, to remove cells and polyacrylamide gel respectively prior to measurement of the absorbance. […] The reaction mixtures are incubated for 15 minutes at 65° C., reactions are halted by addition of 4.2% perchloric acid and the solutions are centrifuged. Aliquots of the supernatant solutions are assayed for glucose or galactose. Glucose is estimated by a modification of the method of Trinder (Ann. Clin. […] Ltd.), 0.15 ml peroxidase (Boehringer Corp. Ltd.), 100 mg of 4-aminophenazone and 300 mg of sodium azide) followed by incubation at 37° C. for 10 minutes and absorbance measurement at 515 nm. […] Ltd.) is added, the solutions incubated at 37° C. for 30 minutes and the absorbance again measured at 340 nm.

[4] = read-out: Michaelis constant (Km) with ONPG as substrate
[5] = read-out: Km with lactose as substrate

## N[C@@H](CS)C(=O)O [Cysteine, cysteine]
[1]; addition at 10 mM final, ONPG as substrate, whole cells, no addition = 100
  % Activity: 103.7%
[2]; addition at 10 mM final, ONPG as substrate, purified enzyme, no addition = 100
  % Activity: 98.1%
[3]; addition at 10 mM final, ONPG as substrate, immobilised whole cells, no addition = 100
  % Activity: 109.4%

## O=[N+]([O-])c1ccccc1O[C@@H]1O[C@H](CO)[C@H](O)[C@H](O)[C@H]1O [ONPG, orthonitrophenyl-β-D-galactopyranoside, reference compound]
[1]; [4]
  Km: 380 µM
[2]; HRI enzyme, measured at 65° C., read-out: Michaelis constant (Km) for ONPG
  Km: 430 µM
[2]; purified enzyme, pH 7.0, 65° C., read-out: Michaelis constant (Km) with ONPG as substrate
  Km: 430 µM
[3]; [4]
  Km: 260 µM

## OC[C@H]1O[C@@H](O[C@H]2[C@H](O)[C@@H](O)C(O)O[C@@H]2CO)[C@H](O)[C@@H](O)[C@H]1O (some centres unmarked) [lactose]
[1]; [5]
  Km: 11800 µM
[2]; HRI enzyme, measured at 65° C., read-out: Michaelis constant (Km) for lactose
  Km: 2100 µM
[2]; purified enzyme extract, pH 7.0, 65° C., read-out: Km with lactose as substrate
  Km: 2060 µM
[3]; [5]
  Km: 9520 µM
